Laboratory results as given in PMC7570852, “Ruthenium(II)/(III) DMSO-Based Complexes of 2-Aminophenyl Benzimidazole with In Vitro and In Vivo Anticancer Activity” (Molecules, 2020).

Experiments:
[1] = test system: Ehrlich ascites carcinoma (EAC) cells; assay: EAC cytotoxicity assay in vitro (trypan blue exclusion); type: cell-based, mouse; settings: 2 h at 37 °C
Method: The cytotoxicity determination of compound (2) against EAC cells was calculated by the trypan blue exclusion method. The EAC cells were aspirated from the mouse’s peritoneal cavity by a sterile syringe and immediately transferred into a sterile falcon tube. Then, the cells were washed with sterile PBS to remove any serum or blood traces and centrifuged for 3 min, after which the supernatant was removed. After washing 2–3 times with PBS, the cell pellet was aspirated into a sterile falcon tube and every 1 mL of cell pellet was resuspended in 9 mL of sterile PBS until a concentration of […] in 0.1 mL was achieved, as determined with a hemocytometer; where 0.1 mL of cell suspension was added to 0.880 mL PBS then 20 μL of trypan blue was added. The cells’ viability was checked using a hemocytometer and found to be greater than 98%. […] Cells were visualized and counted under the microscope. For each sample at least 500 cells were counted, and the percent of dead to live cells was calculated. […] The percentage of cell viability was calculated using Equations (5) and (6):(5) % Cytotoxicity=Tdead−Cdead/Ttotal×100% % Viability = 100 − % Cytotoxicity(6) where Tdead is the number of dead cells in the treated tube, Cdead is the number of dead cells in the control tube, and Ttotal is the total number of cells (dead + live) in the treated tube.

CT DNA (EB-DNA adduct) = assay: Ethidium bromide (EB-DNA) competitive fluorescence assay; type: binding, calf; settings: [DNA] = [EB] = 5 μM
Method: The binding affinity of the metal complexes towards CT DNA was evaluated using competitive fluorescence studies. CT DNA pretreated with ethidium bromide (EB) ([DNA] = [EB] = 5 μM) in Tris-HCl/NaCl buffer (pH = 7.2) was incubated with the complexes in concentrations of 0–90 μM. […] The quenching of EB-DNA adduct fluorescence was followed by monitoring the emission spectra in the wavelength range of 530–650 nm. Upon addition of the metal complexes to the EB-DNA adduct, the quenching binding constant (Kq) at λ = 585 nm is determined from the Stern-Volmer Equation (2):I0/I = 1 + Kq[Q](2) where I0 and I are the fluorescence intensities of EB-DNA in the […] of the metal complexes, respectively, [Q] is the concentration of the tested compounds, and Kq is the quenching constant calculated from the slope of the straight line obtained from plotting Io/I vs. [Q]. In addition, the apparent binding constant can be calculated from Equation (3):KEB[EB] = Kapp[Q](3) where KEB = 1 × 10^7 M^−1 [EB] is the ethidium bromide concentration (5 μM) and [Q] is the concentration of the quencher that provides a 50% intensity reduction of the initial EB-DNA adduct.

[2] = Median lethal dose (LD50) determination; type: in vivo; settings: mice, intraperitoneal, mortality after 24 h
Method: The LD50 was estimated by the method of Enegide. Briefly, different concentrations of compound (2) was prepared by dissolving a certain weight in 2% DMSO and completed with sterile saline then vortexed and left for 5 min until the solution was clear. Three hundred µL of each concentration (10, 20, 40, 60, 80, 100, 120, and 140 mg/kg) was injected intraperitoneally to eight groups of mice (each one containing four mice), then mortality was recorded after 24 h.

[3] = test system: caspase 3 gene expression; assay: Real-time qPCR of liver tissue, caspase 3; type: in vivo; settings: liver tissue of EAC-bearing mice, vs untreated
Method: RNA was isolated from liver tissues using a RNeasy Mini kit. The integrity and purity of RNA were assessed by 1% agarose gel electrophoresis and nanodrop, respectively. The obtained RNA was reverse transcribed to yield cDNA using Quantiscript reverse transcriptase. Specific primers for Bax, caspase 3, and Bcl2 genes in addition to the housekeeping gene, β actin were designed by the Primer 3 web-based tool based on the published mice sequences (Table 5). Quantitative real-time PCR (qPCR) was performed using QuantiTect SYBR Green qPCR Master Mix in a StepOnePlus real-time PCR system and the melting curve condition and fold change calculation were done as previously described.

CS(C)=O.Nc1ccccc1-c1nc2ccccc2[nH]1.O.[Cl][Ru]([Cl])[Cl] [(2), [Ru(III)Cl3(DMSO)(Hapbim)]·H2O]
IC50 against EAC cells [1]: 70 ± 1 µg/mL
Kapp (apparent binding constant) (CT DNA (EB-DNA adduct); KEB = 1 × 10^7 M^−1): 1.72 ± 0.28 × 10^7 M^−1
Kq (quenching constant) (CT DNA (EB-DNA adduct); Stern-Volmer, 585 nm): 8.64 ± 0.15 × 10^3 M^−1
LD50 [2]: 60 mg/kg
caspase 3 mRNA level [3]: significant increases
